Test results as given in patent US20230416240A1, “KAT6 TARGETING COMPOUNDS” (Prelude Therapeutics Incorporated, priority 2022, published 2023).

Target: T1, HiBit tagged KAT6A (Homo sapiens, UniProt Q92794)
T1 construct: host or cells: HeLa
Assay: HiBit KAT6A Degradation Assessment
Format: cell-based
Conditions: HeLa cells with HiBit tagged KAT6A, 18 h of treatment, 9-point serial dilution
Description: The degradation activity of compounds was evaluated by measuring levels of KAT6A protein using the HiBiT system. These studies were conducted in HeLa cells with a HiBit tagged KAT6A. Cells were maintained in a 37° C. incubator at 5% CO2 in EMEM (ATCC, 30-2003) supplemented with 10% v/v FBS (Gibco, 26140-079) and 1% penicillin streptomycin. Cells were seeded in 384-well plates at a density of 2,000 cells/well. Compounds dissolved in DMSO were added in 9-point serial dilution. After 18 h of treatment, KAT6A levels were measured using the Nano-Glo® HiBiT Lytic Detection System (Promega catalog number N3030) per manufacturer's instructions. Luminescence signal was measured with a multimode plate reader (Envision 2105, Perkin Elmer). Luminescence values were normalized to background and DMSO controls to quantify KAT6A for each condition. Results were analyzed, and DC50 and Dmax values obtained using a four-parameter logistic curve fit.

T1 sequence (Q92794 whole entry): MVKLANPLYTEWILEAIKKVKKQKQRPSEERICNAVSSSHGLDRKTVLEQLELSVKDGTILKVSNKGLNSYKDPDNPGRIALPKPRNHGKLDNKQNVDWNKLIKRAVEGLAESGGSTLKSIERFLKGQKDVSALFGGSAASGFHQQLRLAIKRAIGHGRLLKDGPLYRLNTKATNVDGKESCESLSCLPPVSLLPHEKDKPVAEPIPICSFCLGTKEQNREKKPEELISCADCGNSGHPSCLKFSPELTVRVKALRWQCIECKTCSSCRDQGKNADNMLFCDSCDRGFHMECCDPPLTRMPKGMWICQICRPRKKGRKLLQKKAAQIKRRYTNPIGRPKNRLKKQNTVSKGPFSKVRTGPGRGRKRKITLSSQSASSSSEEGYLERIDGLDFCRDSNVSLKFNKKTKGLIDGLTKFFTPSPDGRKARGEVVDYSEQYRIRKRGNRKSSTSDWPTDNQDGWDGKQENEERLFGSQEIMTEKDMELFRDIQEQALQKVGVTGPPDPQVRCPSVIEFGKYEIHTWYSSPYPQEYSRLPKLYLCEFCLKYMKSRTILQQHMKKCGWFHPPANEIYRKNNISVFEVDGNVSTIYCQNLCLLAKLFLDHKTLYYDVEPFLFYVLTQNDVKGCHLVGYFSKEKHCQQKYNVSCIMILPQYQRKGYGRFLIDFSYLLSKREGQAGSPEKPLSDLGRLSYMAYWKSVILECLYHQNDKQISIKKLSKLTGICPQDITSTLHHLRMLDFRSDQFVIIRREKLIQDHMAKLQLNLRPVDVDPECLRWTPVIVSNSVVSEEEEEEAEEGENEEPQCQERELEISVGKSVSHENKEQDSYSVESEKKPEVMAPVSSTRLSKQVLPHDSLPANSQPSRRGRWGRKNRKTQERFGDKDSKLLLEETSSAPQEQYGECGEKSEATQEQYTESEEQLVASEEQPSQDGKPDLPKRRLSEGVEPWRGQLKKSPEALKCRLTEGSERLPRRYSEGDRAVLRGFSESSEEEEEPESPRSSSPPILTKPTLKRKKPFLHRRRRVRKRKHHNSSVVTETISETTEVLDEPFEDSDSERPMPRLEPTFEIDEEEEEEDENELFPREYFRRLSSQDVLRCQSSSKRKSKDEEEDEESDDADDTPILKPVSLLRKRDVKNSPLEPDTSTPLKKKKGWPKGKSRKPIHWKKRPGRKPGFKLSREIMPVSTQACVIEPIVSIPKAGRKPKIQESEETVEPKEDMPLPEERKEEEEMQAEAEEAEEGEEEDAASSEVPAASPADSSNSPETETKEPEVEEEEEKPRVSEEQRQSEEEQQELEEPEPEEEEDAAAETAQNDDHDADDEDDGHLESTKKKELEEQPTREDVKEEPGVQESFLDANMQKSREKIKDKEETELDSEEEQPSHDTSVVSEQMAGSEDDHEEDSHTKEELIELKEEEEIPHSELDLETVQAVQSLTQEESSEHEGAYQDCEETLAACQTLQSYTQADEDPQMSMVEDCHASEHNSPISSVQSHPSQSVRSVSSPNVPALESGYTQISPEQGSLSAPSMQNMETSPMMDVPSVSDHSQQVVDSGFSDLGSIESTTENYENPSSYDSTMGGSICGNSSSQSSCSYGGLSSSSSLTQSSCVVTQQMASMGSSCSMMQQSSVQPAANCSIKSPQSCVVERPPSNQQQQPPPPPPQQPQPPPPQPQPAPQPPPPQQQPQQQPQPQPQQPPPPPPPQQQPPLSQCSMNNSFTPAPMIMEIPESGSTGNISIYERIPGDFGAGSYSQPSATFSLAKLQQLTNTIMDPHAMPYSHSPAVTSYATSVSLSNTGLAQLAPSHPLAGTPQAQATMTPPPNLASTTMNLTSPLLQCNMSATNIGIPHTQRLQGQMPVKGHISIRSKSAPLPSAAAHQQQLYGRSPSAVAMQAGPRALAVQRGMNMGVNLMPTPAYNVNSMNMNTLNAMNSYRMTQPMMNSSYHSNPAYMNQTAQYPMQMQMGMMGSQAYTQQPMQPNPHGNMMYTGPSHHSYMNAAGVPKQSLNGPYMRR

Row | SMILES | DC50 [nM] | Dmax [%]
1 | COc1cc(Cn2cccn2)cc2onc(NS(=O)(=O)c3cccc(NC4CCN(C[C@@H]5CCN(c6ccc7c(c6)CN([C@H]6CCC(=O)NC6=O)C7=O)C5)CC4)c3)c12 [Example 38, N-(6-((1H-Pyrazol-1-yl)methyl)-4-methoxybenzo[d]isoxazol-3-yl)-3-((1-(((S)-1-(2-((S)-2,6-dioxopiperidin-3-yl)-1-oxoisoindolin-5-yl)pyrrolidin-3-yl)methyl)piperidin-4-yl)amino)benzenesulfonamide] | 10 to 100 | 50 to 75
2 | COc1cc(Cn2cccn2)cc2onc(NS(=O)(=O)c3cccc(N4CCN(CCOC5CCN(c6ccc7c(c6)C(=O)N(C6CCC(=O)NC6=O)C7=O)CC5)CC4)c3)c12 (centres unmarked) [Example 17, N-(6-((1H-Pyrazol-1-yl)methyl)-4-methoxybenzo[d]isoxazol-3-yl)-3-(4-(2-((1-(2-(2,6-dioxopiperidin-3-yl)-1,3-dioxoisoindolin-5-yl)piperidin-4-yl)oxy)ethyl)-piperazin-1-yl)benzenesulfonamide] | – | 25 to 50
3 | COc1cc(Cn2cccn2)cc2onc(NS(=O)(=O)c3cccc(N4CCN(CC5CCN(c6ccc7c(c6)C(=O)N(C6CCC(=O)NC6=O)C7=O)C5)C(C)(C)C4)c3)c12 (centres unmarked) [Example 21, N-(6-((1H-Pyrazol-1-yl)methyl)-4-methoxybenzo[d]isoxazol-3-yl)-3-(4-((1-(2-(2,6-dioxopiperidin-3-yl)-1,3-dioxoisoindolin-5-yl)pyrrolidin-3-yl)methyl)-3,3-dimethylpiperazin-1-yl)benzenesulfonamide] | 100 to 1000 | 50 to 75
4 | COc1cc(Cn2cccn2)cc2onc(NS(=O)(=O)c3cccc(N4CCN(CC5CC6(CCN(c7ccc8c(c7)C(=O)N(C7CCC(=O)NC7=O)C8=O)CC6)C5)CC4)c3)c12 (centres unmarked) [Example 19, N-(6-((1H-Pyrazol-1-yl)methyl)-4-methoxybenzo[d]isoxazol-3-yl)-3-(4-((7-(2-(2,6-dioxopiperidin-3-yl)-1,3-dioxoisoindolin-5-yl)-7-azaspiro[3.5]nonan-2-yl)methyl)piperazin-1-yl)benzenesulfonamide] | 10 to 100 | 50 to 75
5 | COc1cc(Cn2cccn2)cc2onc(NS(=O)(=O)c3cccc(N4CCN(CC5CCN(c6cccc7c6C(=O)N(C6CCC(=O)NC6=O)C7=O)C5)CC4)c3)c12 (centres unmarked) [Example 31, N-(6-((1H-Pyrazol-1-yl)methyl)-4-methoxybenzo[d]isoxazol-3-yl)-3-(4-((1-(2-(2,6-dioxopiperidin-3-yl)-1,3-dioxoisoindolin-4-yl)pyrrolidin-3-yl)methyl)piperazin-1-yl)benzenesulfonamide] | 100 to 1000 | 50 to 75
6 | COc1cc(Cn2cccn2)cc2onc(NS(=O)(=O)c3cccc(N4CCN(C(=O)C5CCN(c6ccc7c(c6)C(=O)N(C6CCC(=O)NC6=O)C7=O)C5)CC4)c3)c12 (centres unmarked) [Example 24, N-(6-((1H-pyrazol-1-yl)methyl)-4-methoxybenzo[d]isoxazol-3-yl)-3-(4-(1-(2-(2,6-dioxopiperidin-3-yl)-1,3-dioxoisoindolin-5-yl)pyrrolidine-3-carbonyl)piperazin-1-yl)benzenesulfonamide] | – | ≤ 25
7 | COc1cc(Cn2cccn2)cc2onc(NS(=O)(=O)c3cccc(N4CCN(CC5CCN(c6ccc(C(=O)NC7CCC(=O)NC7=O)nc6)CC5)CC4)c3)c12 (centres unmarked) [Example 29, 5-(4-((4-(3-(N-(6-((1H-Pyrazol-1-yl)methyl)-4-methoxybenzo[d]isoxazol-3-yl)sulfamoyl)phenyl)piperazin-1-yl)methyl)piperidin-1-yl)-N-(2,6-dioxopiperidin-3-yl) picolinamide] | – | 25 to 50
8 | COc1cc(Cn2cccn2)cc2onc(NS(=O)(=O)c3cccc(N4CCC(CN5CCC(Oc6ccc7c(c6)C(=O)N(C6CCC(=O)NC6=O)C7=O)CC5)C4)c3)c12 (centres unmarked) [Example 23, N-(6-((1H-Pyrazol-1-yl)methyl)-4-methoxybenzo[d]isoxazol-3-yl)-3-(3-((4-((2-(2,6-dioxopiperidin-3-yl)-1,3-dioxoisoindolin-5-yl)oxy)piperidin-1-yl)methyl)pyrrolidin-1-yl)benzenesulfonamide] | – | 25 to 50

Results, then the compound that gave them:

Row | DC50 [nM] | Dmax [%] | SMILES
9 | < 10 | > 75 | COc1cc(Cn2cccn2)cc2onc(NS(=O)(=O)c3cccc(N4CCC5(CCN(CC6CCN(c7ccc8c(c7)C(=O)N(C7CCC(=O)NC7=O)C8=O)C6)CC5)CC4)c3)c12 (centres unmarked) [Example 20, N-(6-((1H-Pyrazol-1-yl)methyl)-4-methoxybenzo[d]isoxazol-3-yl)-3-(9-((1-(2-(2,6-dioxopiperidin-3-yl)-1,3-dioxoisoindolin-5-yl)pyrrolidin-3-yl)methyl)-3,9-diazaspiro[5.5]undecan-3-yl)benzenesulfonamide]
10 | < 10 | > 75 | COc1c(N2CC3(CCN(C[C@@H]4CCN(c5ccc6c(c5)C(=O)N(C5CCC(=O)NC5=O)C6=O)C4)CC3)C2)cccc1S(=O)(=O)Nc1noc2cc(Cn3cccn3)cc(OC)c12 (stereo partly drawn) [Example 30, N-(6-((1H-pyrazol-1-yl)methyl)-4-methoxybenzo[d]isoxazol-3-yl)-3-(7-(((3S)-1-(2-(2,6-dioxopiperidin-3-yl)-1,3-dioxoisoindolin-5-yl)pyrrolidin-3-yl)methyl)-2,7-diazaspiro[3.5]nonan-2-yl)-2-methoxybenzenesulfonamide]
11 | < 10 | > 75 | COc1cc(Cn2cccn2)cc2onc(NS(=O)(=O)c3cccc(N4CC5(CCN(C[C@@H]6CCN(c7ccc8c(c7)C(=O)N(C7CCC(=O)NC7=O)C8=O)C6)CC5)C4)c3)c12 (stereo partly drawn) [Example 16, N-(6-((1H-Pyrazol-1-yl)methyl)-4-methoxybenzo[d]isoxazol-3-yl)-3-(7-(((3S)-1-(2-(2,6-dioxopiperidin-3-yl)-1,3-dioxoisoindolin-5-yl)pyrrolidin-3-yl)methyl)-2,7-diazaspiro[3.5]nonan-2-yl)benzenesulfonamide]
12 | < 10 | 50 to 75 | COc1cc(Cn2cccn2)cc2onc(NS(=O)(=O)c3cccc(N4CCC5(CC4)CN(C[C@@H]4CCN(c6ccc7c(c6)C(=O)N(C6CCC(=O)NC6=O)C7=O)C4)C5)c3)c12 (stereo partly drawn) [Example 14, N-(6-((1H-Pyrazol-1-yl)methyl)-4-methoxybenzo[d]isoxazol-3-yl)-3-(2-(((3S)-1-(2-(2,6-dioxopiperidin-3-yl)-1,3-dioxoisoindolin-5-yl)pyrrolidin-3-yl)methyl)-2,7-diazaspiro[3.5]nonan-7-yl)benzenesulfonamide]
13 | < 10 | > 75 | COc1cc(Cn2cccn2)cc2onc(NS(=O)(=O)c3cccc(N4CCC5(CCN(C[C@@H]6CCN(c7ccc8c(c7)CN(C7CCC(=O)NC7=O)C8=O)C6)CC5)CC4)c3)c12 (stereo partly drawn) [Example 39, N-(6-((1H-Pyrazol-1-yl)methyl)-4-methoxybenzo[d]isoxazol-3-yl)-3-(9-(((3S)-1-(2-(2,6-dioxopiperidin-3-yl)-1-oxoisoindolin-5-yl)pyrrolidin-3-yl)methyl)-3,9-diazaspiro[5.5]undecan-3-yl)benzenesulfonamide]
14 | < 10 | > 75 | COc1c(N2CC3(CCN(C[C@@H]4CCN(c5ccc6c(c5)CN(C5CCC(=O)NC5=O)C6=O)C4)CC3)C2)cccc1S(=O)(=O)Nc1noc2cc(Cn3cccn3)cc(OC)c12 (stereo partly drawn) [Example 26, N-(6-((1H-Pyrazol-1-yl)methyl)-4-methoxybenzo[d]isoxazol-3-yl)-3-(7-(((3S)-1-(2-(2,6-dioxopiperidin-3-yl)-1-oxoisoindolin-5-yl)pyrrolidin-3-yl)methyl)-2,7-diazaspirononan-2-yl)-2-methoxybenzenesulfonamide]
15 | < 10 | > 75 | COc1ccc(N2CC3(CCN(C[C@@H]4CCN(c5ccc6c(c5)C(=O)N(C5CCC(=O)NC5=O)C6=O)C4)CC3)C2)c(OC)c1S(=O)(=O)Nc1noc2cc(Cn3cccn3)cc(OC)c12 (stereo partly drawn) [Example 25, N-(6-((1H-Pyrazol-1-yl)methyl)-4-methoxybenzo[d]isoxazol-3-yl)-3-(7-(((3S)-1-(2-(2,6-dioxopiperidin-3-yl)-1,3-dioxoisoindolin-5-yl)pyrrolidin-3-yl)methyl)-2,7-diazaspiro[3.5]nonan-2-yl)-2,6-dimethoxybenzenesulfonamide]
16 | < 10 | 50 to 75 | COc1cc(Cn2cccn2)cc2onc(NS(=O)(=O)c3cccc(N(C)C4CCN(C[C@@H]5CCN(c6ccc7c(c6)CN([C@H]6CCC(=O)NC6=O)C7=O)C5)CC4)c3)c12 [Example 37, N-(6-((1H-Pyrazol-1-yl)methyl)-4-methoxybenzo[d]isoxazol-3-yl)-3-((1-(((S)-1-(2-((S)-2,6-dioxopiperidin-3-yl)-1-oxoisoindolin-5-yl)pyrrolidin-3-yl)methyl)piperidin-4-yl)(methyl)amino)benzenesulfonamide]
17 | < 10 | 50 to 75 | COc1ccc(N2CC3(CCN(CC4CCN(c5ccc6c(c5)C(=O)N(C5CCC(=O)NC5=O)C6=O)C4)CC3)C2)cc1S(=O)(=O)Nc1noc2cc(Cn3cccn3)cc(OC)c12 (centres unmarked) [Example 41, N-(6-((1H-pyrazol-1-yl)methyl)-4-methoxybenzo[d]isoxazol-3-yl)-5-(7-((1-(2-(2,6-dioxopiperidin-3-yl)-1,3-dioxoisoindolin-5-yl)pyrrolidin-3-yl)methyl)-2,7-diazaspiro[3.5]nonan-2-yl)-2-methoxybenzenesulfonamide]
18 | < 10 | 50 to 75 | COc1cc(Cn2cccn2)cc2onc(NS(=O)(=O)c3cccc(N4CC5(CCN(C[C@H]6CCN(c7ccc8c(c7)C(=O)N(C7CCC(=O)NC7=O)C8=O)C6)CC5)C4)c3)c12 (stereo partly drawn) [Example 35, N-(6-((1H-pyrazol-1-yl)methyl)-4-methoxybenzo[d]isoxazol-3-yl)-3-(7-(((3R)-1-(2-(2,6-dioxopiperidin-3-yl)-1,3-dioxoisoindolin-5-yl)pyrrolidin-3-yl)methyl)-2,7-diazaspiro[3.5]nonan-2-yl)benzenesulfonamide]
